We go through two compounds from ChEMBL document CHEMBL1201862, “PubChem BioAssay data set” (2004).

Assay [1] has as its target T1, Replicative DNA helicase DnaB (Mycobacterium tuberculosis, UniProt P9WMR3).
T1 sequence (P9WMR3 whole entry): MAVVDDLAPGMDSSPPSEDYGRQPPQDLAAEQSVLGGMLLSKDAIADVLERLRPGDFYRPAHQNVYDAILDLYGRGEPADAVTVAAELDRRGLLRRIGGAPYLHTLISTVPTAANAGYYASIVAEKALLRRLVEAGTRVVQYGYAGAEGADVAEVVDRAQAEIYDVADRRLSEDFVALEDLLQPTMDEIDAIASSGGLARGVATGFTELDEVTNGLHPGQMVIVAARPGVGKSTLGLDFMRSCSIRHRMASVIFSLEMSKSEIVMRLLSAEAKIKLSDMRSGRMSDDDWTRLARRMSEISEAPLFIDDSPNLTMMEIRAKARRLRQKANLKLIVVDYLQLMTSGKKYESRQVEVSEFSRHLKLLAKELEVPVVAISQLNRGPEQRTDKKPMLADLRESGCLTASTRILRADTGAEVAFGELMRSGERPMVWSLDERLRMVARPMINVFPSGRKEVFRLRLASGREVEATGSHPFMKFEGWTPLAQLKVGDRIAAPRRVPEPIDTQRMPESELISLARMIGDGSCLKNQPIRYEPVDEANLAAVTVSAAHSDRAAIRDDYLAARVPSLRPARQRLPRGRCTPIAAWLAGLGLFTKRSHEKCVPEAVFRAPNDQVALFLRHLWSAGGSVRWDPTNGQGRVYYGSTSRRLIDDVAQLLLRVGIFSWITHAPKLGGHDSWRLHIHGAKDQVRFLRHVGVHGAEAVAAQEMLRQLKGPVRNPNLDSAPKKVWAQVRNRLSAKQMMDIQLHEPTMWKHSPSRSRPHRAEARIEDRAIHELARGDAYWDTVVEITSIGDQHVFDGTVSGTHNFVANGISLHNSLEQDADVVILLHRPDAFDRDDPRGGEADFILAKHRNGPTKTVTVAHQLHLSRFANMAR
The assay can be described thus: DnaB intein splicing inhibitors, dose response, biochemical, cell-free fluorescence (AID 449749). Type of assay: functional.

The target in assay [2] is T2, Apoptotic protease-activating factor 1 (Homo sapiens, UniProt O14727).
T2 sequence (O14727 whole entry): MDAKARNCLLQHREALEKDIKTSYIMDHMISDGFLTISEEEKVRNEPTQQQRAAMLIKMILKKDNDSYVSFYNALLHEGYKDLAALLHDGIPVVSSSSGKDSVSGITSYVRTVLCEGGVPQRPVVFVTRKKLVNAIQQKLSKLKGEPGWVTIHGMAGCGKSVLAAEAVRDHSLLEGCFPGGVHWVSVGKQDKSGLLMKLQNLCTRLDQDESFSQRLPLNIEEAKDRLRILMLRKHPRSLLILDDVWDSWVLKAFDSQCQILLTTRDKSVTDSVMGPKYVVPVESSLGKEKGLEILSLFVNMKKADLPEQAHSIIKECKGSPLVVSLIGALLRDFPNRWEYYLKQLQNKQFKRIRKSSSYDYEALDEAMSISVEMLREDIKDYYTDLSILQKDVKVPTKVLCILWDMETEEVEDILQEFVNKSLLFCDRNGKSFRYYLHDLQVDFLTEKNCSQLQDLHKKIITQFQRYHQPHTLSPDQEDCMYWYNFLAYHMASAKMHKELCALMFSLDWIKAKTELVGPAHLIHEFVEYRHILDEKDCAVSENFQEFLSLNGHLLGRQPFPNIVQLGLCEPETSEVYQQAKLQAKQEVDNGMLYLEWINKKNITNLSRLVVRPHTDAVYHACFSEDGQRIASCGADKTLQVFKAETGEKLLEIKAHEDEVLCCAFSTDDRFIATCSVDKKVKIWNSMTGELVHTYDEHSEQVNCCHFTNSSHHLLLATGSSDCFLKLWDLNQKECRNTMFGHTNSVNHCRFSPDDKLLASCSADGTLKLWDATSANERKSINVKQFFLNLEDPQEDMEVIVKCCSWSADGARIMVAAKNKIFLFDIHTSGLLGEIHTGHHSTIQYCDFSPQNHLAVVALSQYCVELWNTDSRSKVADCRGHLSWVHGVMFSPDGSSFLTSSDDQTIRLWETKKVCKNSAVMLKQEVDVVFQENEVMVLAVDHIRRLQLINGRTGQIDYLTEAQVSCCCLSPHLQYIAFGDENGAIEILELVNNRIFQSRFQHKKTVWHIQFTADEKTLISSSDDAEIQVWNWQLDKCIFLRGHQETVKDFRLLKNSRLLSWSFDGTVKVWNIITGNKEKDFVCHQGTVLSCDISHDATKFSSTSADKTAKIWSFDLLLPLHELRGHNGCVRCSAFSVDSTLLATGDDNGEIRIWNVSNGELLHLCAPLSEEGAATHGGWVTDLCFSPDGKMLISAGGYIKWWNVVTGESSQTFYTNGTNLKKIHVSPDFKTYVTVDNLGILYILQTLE
Type of assay: functional.

A further assay concerns the target T3, Protein RecA (Mycobacterium tuberculosis, UniProt P9WHJ3).
T3 sequence (P9WHJ3 whole entry): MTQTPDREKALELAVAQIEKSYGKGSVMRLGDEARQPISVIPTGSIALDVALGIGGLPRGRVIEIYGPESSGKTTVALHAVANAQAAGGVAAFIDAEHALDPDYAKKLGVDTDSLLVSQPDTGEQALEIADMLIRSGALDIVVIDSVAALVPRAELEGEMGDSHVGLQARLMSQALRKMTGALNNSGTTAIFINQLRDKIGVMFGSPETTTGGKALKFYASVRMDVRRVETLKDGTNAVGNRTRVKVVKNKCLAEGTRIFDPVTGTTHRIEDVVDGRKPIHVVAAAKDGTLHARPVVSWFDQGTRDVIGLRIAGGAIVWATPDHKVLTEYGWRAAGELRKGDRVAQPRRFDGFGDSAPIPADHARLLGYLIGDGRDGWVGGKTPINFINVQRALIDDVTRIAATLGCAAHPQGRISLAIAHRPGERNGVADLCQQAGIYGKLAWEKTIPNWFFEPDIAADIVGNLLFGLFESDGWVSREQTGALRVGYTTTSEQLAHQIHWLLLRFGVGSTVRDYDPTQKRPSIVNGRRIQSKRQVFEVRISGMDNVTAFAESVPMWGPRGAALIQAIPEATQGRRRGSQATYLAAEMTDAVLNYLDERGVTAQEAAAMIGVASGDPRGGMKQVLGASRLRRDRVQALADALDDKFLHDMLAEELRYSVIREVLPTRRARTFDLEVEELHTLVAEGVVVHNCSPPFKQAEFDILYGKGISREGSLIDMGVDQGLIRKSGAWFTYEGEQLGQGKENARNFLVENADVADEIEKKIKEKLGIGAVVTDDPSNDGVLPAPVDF
Briefly: Fluorescence Cell-Free Homogeneous Dose Retest to Identify Inhibitors of RecA-Intein Splicing Activity. [Related pubchem assays (depositor defined):AID2097, AID2223, AID489010, AID492950]. The class given is functional.

The target of a further assay is T4, Caspase-6 (Homo sapiens, UniProt P55212).
T4 sequence (P55212 whole entry): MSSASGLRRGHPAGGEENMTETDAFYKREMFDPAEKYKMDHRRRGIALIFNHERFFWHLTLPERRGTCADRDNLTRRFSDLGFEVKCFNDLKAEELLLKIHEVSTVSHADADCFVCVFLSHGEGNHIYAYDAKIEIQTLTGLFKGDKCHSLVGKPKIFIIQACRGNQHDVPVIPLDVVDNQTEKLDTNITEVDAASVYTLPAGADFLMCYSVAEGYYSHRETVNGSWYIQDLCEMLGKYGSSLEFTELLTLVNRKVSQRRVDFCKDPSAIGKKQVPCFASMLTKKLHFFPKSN
The assay can be described thus: human caspase-6 inhibitors, dose response, biochemical, VEID-R110 fluorescence, cherry-pick (AID 720632).

The target of assay [3] is T5, Tyrosyl-DNA phosphodiesterase 2 (Homo sapiens, UniProt O95551).
T5 sequence (O95551 whole entry): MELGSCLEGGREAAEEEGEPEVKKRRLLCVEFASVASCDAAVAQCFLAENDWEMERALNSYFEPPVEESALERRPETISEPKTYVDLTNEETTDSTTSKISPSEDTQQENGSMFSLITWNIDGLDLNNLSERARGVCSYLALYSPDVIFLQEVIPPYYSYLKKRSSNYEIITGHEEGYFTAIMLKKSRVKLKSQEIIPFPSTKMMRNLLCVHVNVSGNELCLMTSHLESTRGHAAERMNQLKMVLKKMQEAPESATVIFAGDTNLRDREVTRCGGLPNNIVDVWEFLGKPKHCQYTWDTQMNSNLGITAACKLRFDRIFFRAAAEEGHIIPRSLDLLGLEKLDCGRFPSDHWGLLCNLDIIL
Briefly: human TDP2 enzyme inhibitors, dose response, biochemical, epi absorbance, IC50 (AID 743297).

In assay [4] the target is T6, Carboxy-terminal domain RNA polymerase II polypeptide A small phosphatase 1 (Homo sapiens, UniProt Q9GZU7).
T6 sequence (Q9GZU7 whole entry): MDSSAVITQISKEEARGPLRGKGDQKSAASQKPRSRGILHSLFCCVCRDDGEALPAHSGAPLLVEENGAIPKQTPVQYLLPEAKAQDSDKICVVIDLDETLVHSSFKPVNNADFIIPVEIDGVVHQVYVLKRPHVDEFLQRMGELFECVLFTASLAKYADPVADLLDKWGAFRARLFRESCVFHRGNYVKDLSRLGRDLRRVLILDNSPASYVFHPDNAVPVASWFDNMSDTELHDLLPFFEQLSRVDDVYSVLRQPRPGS
Briefly: inhibitors of CTDSP1, concentration-response testing, biochemical assay, absorbance-based, actives from ultra-high-throughput screening (AID 540297). Type of assay: functional.

In assay [5] the target is T7, Tyrosine-protein phosphatase non-receptor type 11 (Homo sapiens, UniProt Q06124).
T7 sequence (Q06124 whole entry): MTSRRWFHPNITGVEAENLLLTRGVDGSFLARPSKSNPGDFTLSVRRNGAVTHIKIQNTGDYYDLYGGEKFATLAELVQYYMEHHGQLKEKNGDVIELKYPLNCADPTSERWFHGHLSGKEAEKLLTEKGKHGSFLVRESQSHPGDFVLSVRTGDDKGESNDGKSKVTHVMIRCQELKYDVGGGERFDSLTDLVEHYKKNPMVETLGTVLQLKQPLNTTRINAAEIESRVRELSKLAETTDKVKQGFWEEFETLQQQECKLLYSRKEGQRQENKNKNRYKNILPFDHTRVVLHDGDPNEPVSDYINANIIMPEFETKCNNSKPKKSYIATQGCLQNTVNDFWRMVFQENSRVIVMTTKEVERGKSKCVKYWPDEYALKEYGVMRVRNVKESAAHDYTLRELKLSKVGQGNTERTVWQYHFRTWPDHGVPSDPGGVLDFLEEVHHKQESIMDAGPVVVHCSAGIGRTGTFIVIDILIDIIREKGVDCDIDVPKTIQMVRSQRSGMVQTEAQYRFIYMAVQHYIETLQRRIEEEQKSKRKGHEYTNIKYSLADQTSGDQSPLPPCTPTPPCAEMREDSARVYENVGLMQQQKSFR
The assay can be described thus: SHP2 phosphatase inhibition, dose response, selectivity assay for STEP inhibitor project, biochemical (AID 602367). The class given is functional. The note with it: read-out: IC50_Mean.

Assay [6] addresses T8, Tyrosine-protein phosphatase non-receptor type 5 (Homo sapiens, UniProt P54829).
T8 sequence (P54829 whole entry): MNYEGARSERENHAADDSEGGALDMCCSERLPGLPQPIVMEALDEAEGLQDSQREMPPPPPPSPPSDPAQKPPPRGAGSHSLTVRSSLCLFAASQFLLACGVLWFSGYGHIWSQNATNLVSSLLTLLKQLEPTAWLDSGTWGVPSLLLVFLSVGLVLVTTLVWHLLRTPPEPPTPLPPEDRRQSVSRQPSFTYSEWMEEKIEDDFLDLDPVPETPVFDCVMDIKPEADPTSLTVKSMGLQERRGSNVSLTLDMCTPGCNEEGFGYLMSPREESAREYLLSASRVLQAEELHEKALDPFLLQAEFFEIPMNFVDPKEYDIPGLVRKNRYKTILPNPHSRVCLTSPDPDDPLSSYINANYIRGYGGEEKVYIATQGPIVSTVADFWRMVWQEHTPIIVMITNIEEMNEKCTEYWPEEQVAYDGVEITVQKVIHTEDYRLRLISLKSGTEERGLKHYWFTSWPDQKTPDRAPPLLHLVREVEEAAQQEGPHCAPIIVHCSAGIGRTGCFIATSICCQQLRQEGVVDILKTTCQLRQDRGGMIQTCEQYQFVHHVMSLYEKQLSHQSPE
The assay can be described thus: STEP phosphatase inhibitors, confirmation, biochemical, fluorescence intensity, uHTS hits (AID 602372). Type of assay: functional. The following applies: read-out: IC50_Mean.

The target of assay [7] is Dual specificity protein phosphatase 3 (Homo sapiens, UniProt P51452). Briefly: VHR phosphatase inhibition, dose response, selectivity assay for STEP inhibitor project, biochemical (AID 602374). Type of assay: functional. The note with it: read-out: IC50_Mean.
Sequence of Dual specificity protein phosphatase 3 (P51452 whole entry): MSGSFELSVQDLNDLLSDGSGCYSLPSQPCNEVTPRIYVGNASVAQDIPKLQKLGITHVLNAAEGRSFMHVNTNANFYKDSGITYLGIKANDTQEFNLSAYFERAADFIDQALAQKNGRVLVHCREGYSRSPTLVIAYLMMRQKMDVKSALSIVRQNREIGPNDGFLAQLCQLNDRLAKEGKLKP

The source made the active and inactive calls.

With `COc1ccc(NC2=C(NCCO)C(=O)c3ccccc3C2=O)cc1`, the AC50 in assay [1] was 31.4 µM (active); at Caspase-6 it was 6.05 µM (active). In addition, the IC50 was 29.4 µM (active) in assay [2] and 88.7 µM (inactive) in [3]. Further, at Protein RecA, the EC50 is 21.9 µM (active).

Take `Cc1c(CC(=O)NCCCCCC(=O)O)c(=O)oc2c(C)c3oc4c(c3cc12)CCCC4`: the IC50 in [4] is 4.72 µM (active); in assay [5], 5.36 µM (active); in assay [6], 36.4 µM (inactive); in [7], 3.9 µM (active).

The AC50 is the concentration giving half of the maximal activity seen. As a reminder, the EC50 is the concentration needed to bring the measured effect to its halfway point.
